# “And” between values parts separate entries of the source, which are not always exact repeats. Identical values can stand only once.
# Columns and labels:
# mouse sarcoma S180 = test: In vivo antitumor efficacy, mouse sarcoma S180 model (subcutaneously transplanted), Example 1
# [1] = system: human cancer cell lines (H460, MV522, MCF7, A549, PC3, A431, HT1080, MDA-231, HT29, HCC2998, OVCAR4, A2780); test: RT-CES system, panel of human cancer cell lines treated with dibenzyl trisulfide; format: cell-based; conditions: 1.5625-100 μM; FIGS. 1-5, 6A, 7-12
# Description: The RT-CES system comprises three components, an electronic sensor analyzer, a device station and 16× or 96× microtiter plate devices. Microelectrode sensor array was fabricated on glass slides with lithographical microfabrication methods and the electrode-containing slides are assembled to plastic trays to form electrode-containing wells. Each 16× (or 96×) microtiter plate device used in RT-CES system comprises up to 16 (or 96) such electrode-containing wells. The device station receives the 16× or 96× microtiter plate devices and is capable of electronically switching any one of the wells to the sensor analyzer for impedance measurement. […] Under the RT-CES software control, the sensor analyzer can automatically select wells to be measured and continuously conduct impedance measurements. The impedance data from the analyzer is transferred to a computer, analyzed and processed by the integrated software.
# To quantify cell status based on the measured cell-electrode impedance, a parameter termed Cell Index is derived, according to
# [formula] where Rb(f) and Rcell(f) are the frequency dependent electrode resistances (a component of impedance) without cells or with cell present, respectively. N is the number of the frequency points at which the impedance is measured. Thus, Cell Index is a quantitative measure of the status of the cells in an electrode-containing well. […]
compound,measurement,setting,value
"c1ccc(CSSSCc2ccccc2)cc1 [DBTS, Dibenzyl trisulfide]",Animal weight (g) end,mouse sarcoma S180; 12.5 mg/kg/d iv x7 qd,24.5 g
same,Inhibition rate (%),"mouse sarcoma S180; 12.5 mg/kg/d iv x7 qd, vs 10% solvent control",30.46%
same,Inhibition rate (%),"mouse sarcoma S180; 12.5 mg/kg/d iv x7 qd, vs normal saline control",48.69%
same,Inhibition rate (%),"mouse sarcoma S180; 25 mg/kg/d iv x7 qd, vs 10% solvent control",38.58%
same,Inhibition rate (%),"mouse sarcoma S180; 25 mg/kg/d iv x7 qd, vs normal saline control",54.68%
same,Inhibition rate (%),"mouse sarcoma S180; 50 mg/kg/d iv x7 qd, vs 10% solvent control",50.25%
same,Inhibition rate (%),"mouse sarcoma S180; 50 mg/kg/d iv x7 qd, vs normal saline control",63.30% and 65%
same,Effect on proliferation of cancer cell lines (time-dependent cell index),[1],exhibited inhibitory effect on the proliferation of a number of cancer cell lines
